According to patent US5942405A, “Therapeutic and screening methods using C3a receptor and C3a” (priority 1997, dated 1999):

Assays:
C3a-R = conditions: cited from earlier work
C3a Receptor = biological target: T1, C3a Receptor (Homo sapiens, UniProt Q16581); test: Electrophysiological response (Ca2+ mediated chloride currents, two electrode voltage clamp) of Xenopus oocytes injected with C3a Receptor cRNA; format: cell-based; design: cDNA encoding a complete orphan GPCR of 482 amino acids; expressed in transfected cells; host or cells: Xenopus laevis oocytes microinjected with cRNA, with or without U937 total RNA; conditions: for electrophysiological response of oocytes expressing C3a Receptor: oocytes co-injected with C3a Receptor cRNA (10 ng) and U937 RNA (25 ng), ligands 10 nM
T1 sequence (Q16581 1-482 F151C): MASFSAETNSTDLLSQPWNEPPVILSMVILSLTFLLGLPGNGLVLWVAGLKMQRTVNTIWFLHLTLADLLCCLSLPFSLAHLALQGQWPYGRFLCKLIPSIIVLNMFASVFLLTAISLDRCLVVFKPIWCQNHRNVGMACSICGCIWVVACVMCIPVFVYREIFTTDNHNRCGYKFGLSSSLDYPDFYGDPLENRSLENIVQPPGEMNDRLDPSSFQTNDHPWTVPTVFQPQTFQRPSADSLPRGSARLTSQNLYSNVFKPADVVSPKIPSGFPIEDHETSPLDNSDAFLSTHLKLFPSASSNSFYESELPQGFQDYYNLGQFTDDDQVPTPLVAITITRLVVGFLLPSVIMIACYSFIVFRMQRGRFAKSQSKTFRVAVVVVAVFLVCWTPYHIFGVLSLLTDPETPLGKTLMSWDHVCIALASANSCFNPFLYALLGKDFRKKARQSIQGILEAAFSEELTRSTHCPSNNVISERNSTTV
Method: (A) Electrophysiological response of Xenopus oocytes injected with cRNA for C3a Receptor (10 ng), total U937 RNA (25 ng), or a mixture of C3a Receptor (10 ng) and U937 RNA (25 ng) to 10 nM rC5a, 10 nM C3a analogue peptide, 10 nM platelet activating factor (PAF), 10 nM fMetLeuPhe. Inset, represents typical response of oocytes co-injected with C3a Receptor cRNA+U937 RNA to 10 nM C3a. (B) Electrophysiological response of oocytes injected with C5a-R cRNA (10 ng), U937 RNA (25 ng) or a mixture of C5a-R and U937 RNA, to 10 nM rC5a or 10 nM C3a analogue peptide. […] Calcium mobilization by Fura 2 loaded cells expressing C5a receptor (FIGS. 4A & 4C) or C3a Receptor (FIGS. 4B & 4D) in response to rC5a (10 nM, FIG. 4A or 100 nM, FIG. 4B) or C3a analogue peptide (1 uM, FIGS. 4C & 4D).
Capped cRNA transcripts were generated from linearized C3a Receptor and C5a-R plasmid DNA as previously described (Kumar, C. S., et al (1989) J. Biol. Chem. 264, 17939-17946) and suspended in sterile water at a concentration of 0.2 μg/μl. Ovarian lobes were surgically removed from adult female Xenopus laevis frogs and defolliculated Stage V oocytes were harvested by manual dissection (Smith, L. D., et al (1991) Methods in Cell Biology, 36, 45-54. Edited by B. K. Kay and H. B. Peng, Academic Press Inc., New York.). Oocytes were microinjected with C3a Receptor or C5a-R cRNA transcripts (10 ng/oocyte) with or without U937 total RNA (25 ng/oocyte) in a 50 nl volume using a Drummond microinjection apparatus and maintained in modified Barth's saline (Power, C. A., et al (1995) J. Biol. Chem., 270,19495-19500 ) at 18° C. Electrophysiological recordings from an average of 10 oocytes were made 48 h later at room temperature using the two electrode voltage clamp (Warner Instruments) technique. Membrane potentials were routinely clamped at -60 mV. Results represent average response determined in three separate experiments.
The chemotactic receptors for C5a and the fMLP-R have previously been functionally expressed in Xenopus laevis oocytes (Kroll, B., et al (1991) FEBS Lett. 291, 208-210; Murphy, P. M. & McDermott, D. (1991) J Biol. Chem. 266, 12560-12567; Murphy, P. M., Gallin, E. K., and Tiffany, H. L. (1990) J Immunol. 145, 2227-2234; Schultz, P., et al (1992) Cellular Signalling 4, 153-161) and, unlike all other GPCRs tested in this system, injection of cRNA for the cloned chemotactic receptors alone is insufficient to stimulate signal transduction in response to ligand binding (Kroll, B., et al (1991) FEBS Lett. 291, 208-210; Murphy, P. M. & McDermott, D. (1991) J Biol. Chem. 266, 12560-12567). Functional expression of both of these chemotactic receptors, as monitored by induction of Ca^2+ mediated chloride currents, requires the co-injection of a complimentary human factor which can be supplied by total RNA from myeloid or liver cells (Kroll, B., et al (1991) FEBS Lett. 291, 208-210; Murphy, P. M. & McDermott, D. (1991) J Biol. Chem. 266, 12560-12567). The co-factor is required for receptor-mediated signal transduction but not for expression of the C5a-R or fMLF-R on the surface of the oocytes (Murphy, P. M., et al (1990) J Immunol. 145, 2227-2234). […] Xenopus oocytes were used to functionally characterize C3a Receptor. […] Like the C5a-R and the fMLF-R, the response was dependent on the co-injection of a cofactor present in total HL-60 or U937 RNA. […] (FIG. 3B). Both the C5a-R as well as C3a Receptor elicited in oocytes a promiscuous response to the two anaphylatoxins.

guinea pig ileal tissue = conditions: C3a and C4a; cited from earlier work

Molecule: pertussis toxin
- sensitivity of functional activity of the C3a-R to pertussis toxin (C3a-R): sensitive
- effect on response to the C3a peptide of oocytes co-injected with C3a Receptor and U937 RNA (C3a Receptor; response to C3a peptide, data not shown): abolished

Molecule: CCCCCCCCCCCCCCCCOCC(COP(=O)([O-])OCC[N+](C)(C)C)OC(C)=O (centres unmarked) [platelet activating factor]
- electrophysiological response of oocytes expressing C3a Receptor (C3a Receptor): not

Molecule: CSCC[C@H](NC=O)C(=O)N[C@@H](CC(C)C)C(=O)N[C@@H](Cc1ccccc1)C(=O)O [fMLF, fMetLeuPhe]
- electrophysiological response of oocytes expressing C3a Receptor (C3a Receptor): not

B1: C4a: 74-77 amino acid anaphylatoxins C3a, C4a and C5a (protein, UniProt P0C0L4 680-756, looked up)
C4a anaphylatoxin: NVNFQKAINEKLGQYASPTAKRCCQDGVTRLPMMRSCEQRAARVQQPDCREPFLSCCQFAESLRKKSRDKGQAGLQR
modifications: C4a anaphylatoxin
notes: 74-77 amino acid anaphylatoxins C3a, C4a and C5a
- cross desensitization of guinea pig ileal tissue (guinea pig ileal tissue): cross desensitize
